Measured values: patent publication US6914045B2, “Glycopeptide antibiotics” (Wyeth Holdings Corporation, priority 2001, dated 2005)
Converted amounts (≈) assume the structure as drawn. Where two headings read alike, the source gives them in different places.

Key:
Test in all cases: in vitro antibacterial evaluation, MIC by broth dilution
Type in all cases: cell-based
Enterococcus sp. = conditions: broth dilution, 18 hours at 35° C.
Outline: (§1)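 Step 1: dilute antibiotic across 64-0.06 μg/mL in Muller-Hinton II […]. Step 2: inoculate at 5×10^5 CFU/mL.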

Staphylococcus sp. = conditions: broth dilution, 18 hours at 35° C.
Outline: as §1

Streptococcus sp. = conditions: broth dilution, 18 hours at 35° C.
Outline: as §1

Escherichia coli = conditions: Escherichia coli, broth dilution, 18 hours at 35° C.
Outline: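 MIC is the lowest antibiotic concentration (tested 64-0.06 μg/mL) preventing growth of a 5×10^5 CFU/mL inoculum. Determined by broth dilution in Mueller-Hinton II medium following NCCLS standard M7-A2.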

MIC Enterococcus faecalis (ATCC 29212) (Enterococcus sp.; strain ATCC 29212): 64 µg/mL (≈ 63 µM) | MIC Enterococcus faecalis (GC 2242) (Enterococcus sp.; strain GC 2242): 64 µg/mL (≈ 63 µM) | MIC Enterococcus faecium (GC 2243) (Enterococcus sp.; strain GC 2243): 64 µg/mL (≈ 63 µM) | MIC Enterococcus faecalis (GC 2691) (Enterococcus sp.; strain GC 2691): 64 µg/mL (≈ 63 µM) | MIC Enterococcus faecalis (GC 3059) (Enterococcus sp.; strain GC 3059): >64 µg/mL | MIC Enterococcus faecalis (GC 4552) (Enterococcus sp.; strain GC 4552): 64 µg/mL (≈ 63 µM) | MIC Enterococcus faecalis (GC 4553) (Enterococcus sp.; strain GC 4553): 64 µg/mL (≈ 63 µM) | MIC Enterococcus faecalis (GC 4554) (Enterococcus sp.; strain GC 4554): 64 µg/mL (≈ 63 µM) | MIC Enterococcus faecium (GC 4556) (Enterococcus sp.; strain GC 4556): 32 µg/mL (≈ 31.5 µM) | MIC Enterococcus faecium (GC 4557) (Enterococcus sp.; strain GC 4557): 64 µg/mL (≈ 63 µM) | MIC Enterococcus avium (GC 4558) (Enterococcus sp.; strain GC 4558): 64 µg/mL (≈ 63 µM) | MIC Enterococcus faecalis (GC 6189) (Enterococcus sp.; strain GC 6189): >64 µg/mL | MIC (Enterococcus sp.; strain ATCC 29212, read-out: MIC Enterococcus faecalis (ATCC 29212)): 64 µg/mL (≈ 63 µM) | MIC (Enterococcus sp.; strain GC 2242, read-out: MIC Enterococcus faecalis (GC 2242)): 64 µg/mL (≈ 63 µM) | MIC (Enterococcus sp.; strain GC 2243, read-out: MIC Enterococcus faecium (GC 2243)): 64 µg/mL (≈ 63 µM) | MIC (Enterococcus sp.; strain GC 2691, read-out: MIC Enterococcus faecalis (GC 2691)): 64 µg/mL (≈ 63 µM) | MIC (Enterococcus sp.; strain GC 3059, read-out: MIC Enterococcus faecalis (GC 3059)): > 64 µg/mL | MIC (Enterococcus sp.; strain GC 4552, read-out: MIC Enterococcus faecalis (GC 4552)): 64 µg/mL (≈ 63 µM) | MIC (Enterococcus sp.; strain GC 4553, read-out: MIC Enterococcus faecalis (GC 4553)): 64 µg/mL (≈ 63 µM) | MIC (Enterococcus sp.; strain GC 4554, read-out: MIC Enterococcus faecalis (GC 4554)): 64 µg/mL (≈ 63 µM) | MIC (Enterococcus sp.; strain GC 4556, read-out: MIC Enterococcus faecium (GC 4556)): 32 µg/mL (≈ 31.5 µM) | MIC (Enterococcus sp.; strain GC 4557, read-out: MIC Enterococcus faecium (GC 4557)): 64 µg/mL (≈ 63 µM) | MIC (Enterococcus sp.; strain GC 4558, read-out: MIC Enterococcus avium (GC 4558)): 64 µg/mL (≈ 63 µM) | MIC (Enterococcus sp.; strain GC 6189, read-out: MIC Enterococcus faecalis (GC 6189)): > 64 µg/mL | MIC (Staphylococcus sp.; Staphylococcus, strain GC 4543, read-out: MIC Staphylococcus aureus-SMITH (GC 4543)): > 64 µg/mL | MIC (Staphylococcus sp.; Staphylococcus, strain GC 4547, read-out: MIC Coagulase Negative Staphylococcus (GC 4547)): 64 µg/mL (≈ 63 µM) | MIC (Staphylococcus sp.; Staphylococcus, strain GC 4548, read-out: MIC Coagulase Negative Staphylococcus (GC 4548)): > 64 µg/mL | MIC (Staphylococcus sp.; Staphylococcus, strain GC 4549, read-out: MIC Coagulase Negative Staphylococcus (GC 4549)): 32 µg/mL (≈ 31.5 µM) | MIC (Staphylococcus sp.; Staphylococcus, strain GC 4551, read-out: MIC Coagulase Negative Staphylococcus (GC 4551)): 64 µg/mL (≈ 63 µM) | MIC (Staphylococcus sp.; strain ATCC 29213, read-out: MIC Staphylococcus aureus (ATCC 29213)): > 64 µg/mL | MIC (Staphylococcus sp.; strain GC 1131, read-out: MIC Staphylococcus aureus (GC 1131)): > 64 µg/mL | MIC (Staphylococcus sp.; strain GC 3051, read-out: MIC Staphylococcus aureus (GC 3051)): > 64 µg/mL | MIC (Staphylococcus sp.; strain GC 3053, read-out: MIC Staphylococcus aureus (GC 3053)): > 64 µg/mL | MIC (Staphylococcus sp.; strain GC 4541, read-out: MIC Staphylococcus aureus (GC 4541)): > 64 µg/mL | MIC (Staphylococcus sp.; strain GC 4542, read-out: MIC Staphylococcus aureus (GC 4542)): > 64 µg/mL | MIC (Staphylococcus sp.; strain GC 4544, read-out: MIC Staphylococcus aureus (GC 4544)): > 64 µg/mL | MIC (Staphylococcus sp.; strain GC 4545, read-out: MIC Staphylococcus aureus (GC 4545)): > 64 µg/mL | MIC Staphylococcus aureus (ATCC 29213) (Staphylococcus sp.; strain ATCC 29213): >64 µg/mL | MIC Staphylococcus aureus (GC 3051) (Staphylococcus sp.; strain GC 3051): >64 µg/mL | MIC Staphylococcus aureus (GC 3053) (Staphylococcus sp.; strain GC 3053): >64 µg/mL | MIC Staphylococcus aureus (GC 4541) (Staphylococcus sp.; strain GC 4541): >64 µg/mL | MIC Staphylococcus aureus (GC 4542) (Staphylococcus sp.; strain GC 4542): >64 µg/mL | MIC Staphylococcus aureus (GC 4544) (Staphylococcus sp.; strain GC 4544): >64 µg/mL | MIC Staphylococcus aureus (GC 4545) (Staphylococcus sp.; strain GC 4545): >64 µg/mL | MIC Streptococcus pneumoniae (ATCC 6301) (Streptococcus sp.; strain ATCC 6301): 64 µg/mL (≈ 63 µM) | MIC Streptococcus pneumoniae (GC 1894) (Streptococcus sp.; strain GC 1894): 64 µg/mL (≈ 63 µM) | MIC Streptococcus pyogenes (GC 4563) (Streptococcus sp.; strain GC 4563): 32 µg/mL (≈ 31.5 µM) | MIC Streptococcus agalactiae (GC 4564) (Streptococcus sp.; strain GC 4564): 64 µg/mL (≈ 63 µM) | MIC Streptococcus pneumoniae (GC 4565) (Streptococcus sp.; strain GC 4565): >64 µg/mL | MIC (Streptococcus sp.; strain ATCC 6301, read-out: MIC Streptococcus pneumoniae (ATCC 6301)): 64 µg/mL (≈ 63 µM) | MIC (Streptococcus sp.; strain GC 1894, read-out: MIC Streptococcus pneumoniae (GC 1894)): 64 µg/mL (≈ 63 µM) | MIC (Streptococcus sp.; strain GC 4563, read-out: MIC Streptococcus pyogenes (GC 4563)): 32 µg/mL (≈ 31.5 µM) | MIC (Streptococcus sp.; strain GC 4564, read-out: MIC Streptococcus agalactiae (GC 4564)): 64 µg/mL (≈ 63 µM) | MIC (Streptococcus sp.; strain GC 4565, read-out: MIC Streptococcus pneumoniae (GC 4565)): > 64 µg/mL | MIC (Escherichia coli; ATCC25922, strain ATCC 25922, read-out: MIC Escherichia coli (ATCC 25922)): > 64 µg/mL | MIC (Escherichia coli; strain GC 4559, read-out: MIC Escherichia coli (GC 4559)): > 64 µg/mL | MIC (Escherichia coli; strain GC 4560, read-out: MIC Escherichia coli (GC 4560)): > 64 µg/mL
SMILES: Cc1cccc(Oc2ccc(-c3nc4cc(C[C@@H]5NC(=O)[C@H](C(C)c6ccccc6)NC(=O)CNC(=O)[C@H](CO)NC(=O)[C@H](C(O)C6CNC(=N)N6)NC(=O)[C@H](C(O)C6CNC(=N)N6)NC5=O)ccc4o3)cc2)c1 (stereo partly drawn) [Example 41, Cyclo[3-[2-[4-(3-methylphenoxy)phenyl]benzoxazol-5-yl]alanyl-3-(2-iminoimidazolidin-4-yl)-seryl-3-(2-iminoimidazolidin-4-yl)serylserylglycyl-β-methylphenylalanyl]]
MIC (Staphylococcus sp.; strain GC 4546, read-out: MIC Staphylococcus haemolyticus (GC 4546)): 64 µg/mL (≈ 63 µM)
